Measured values from patent publication US20240300886A1, “ARYLCYCLOHEXYLAMINE DERIVATIVES AND THEIR USE IN THE TREATMENT OF PSYCHIATRIC DISORDERS” (GILGAMESH PHARMACEUTICALS, INC., priority 2021, published 2024).

Key:
[1] = molecular target: MK-801 binding site of the N-methyl-D-aspartate receptor (NMDAR); test: NMDA receptor radioligand binding with [3H]MK-801; set-up: species or system Wistar rat; details: [3H]MK-801 displacement, Wistar rat brain (minus cerebellum); read-out: NMDAR Ki (95% CI)
Method: The binding affinities of disclosed compounds at the MK-801 binding site of the N-methyl-D-aspartate receptor (NMDAR) were determined in radioligand binding experiments (Table 13).
Radioligand Binding. Affinity of the test compounds for NMDAR was determined in radioligand binding experiments with [^3H]MK-801 by Eurofins Panlabs, Inc., using methods adapted from the literature (Javitt el al. 1987; Reynolds et al. 1989) and under the conditions described in Table 14.

[2] = Metabolic stability in rat liver microsomes (RLM); type: in vitro ADME, Sprague Dawley rats; details: male, Sprague Dawley, rat, pooled rat liver microsomes, pH 7.4, 1 μM compound, 0.50 mg protein/mL, NADPH
Method: (§1) RLM Stability. Pooled RLM from male Sprague Dawley rats (XenoTech R1000) were used. Microsomal incubations were carried out in multi-well plates. Liver microsomal incubation medium consisted of PBS (100 mM, pH 7.4), MgCl2 (1 mM), and NADPH (1 mM), with 0.50 mg of liver microsomal protein per mL. Control incubations were performed by replacing the NADPH-cofactor system with PBS. Test compounds (1 μM, final solvent concentration 1.0%) were incubated with microsomes at 37° C. with constant shaking. Six time points over 60 minutes were analyzed, with 60 μL aliquots of the reaction mixture being drawn at each time point. The reaction aliquots were stopped by adding 180 μL of cold (4° C.) acetonitrile containing 200 ng/mL tolbutamide and 200 ng/mL labetalol as internal standards (IS), followed by shaking for 10 minutes, and then protein sedimentation by centrifugation at 4,000 rpm for 20 minutes at 4° C. Supernatant samples (80 μL) were diluted with water (240 μL) and analyzed for parent compound remaining using a fit-for-purpose liquid chromatography-tandem mass spectrometry (LC-MS/MS) method.
(§2) Data Analysis. The elimination constant (kel), half-life (t1/2) and intrinsic clearance (Clint) were determined in a plot of […] versus time, using linear regression analysis.

[3] = molecular target: serotonin transporter (SERT) (Homo sapiens (Human), UniProt P31645); test: SERT fluorescent substrate uptake inhibition in transfected cells; type: cell-based; details: stably transfected cells expressing SERT
Method: The ability of disclosed compounds to inhibit uptake of monoamines by the serotonin transporter (SERT) was measured using a fluorescent substrate uptake assay in transfected cells (Table 15). […] Considering that inhibitors of SERT are well known to have antidepressant and anxiolytic effects and are among the most commonly prescribed drugs for mood disorders (e.g. fluoxetine, sertraline, etc.), blockade of SERT by certain compounds of the present disclosure is expected to synergize with their NMDAR inhibition to increase therapeutic activity for treating depression and related disorders. […] Further, the ability to tune the ratio between SERT and NMDAR is useful to obtain the optimal therapeutic profile depending on the intended clinical indication.
Uptake Inhibition. The ability of test compounds to block monoamine uptake by SERT was determined using the Neurotransmitter Transporter Uptake Assay Kit manufactured by Molecular Devices (Cat #R8173). Briefly, stably transfected cells expressing SERT were grown and plated into 384-well plates at a concentration of 20,000 cells per well. Plates were then incubated for 16-20 h at 37° C. and 5% CO2. The medium was then aspirated and replaced with 25 μL of assay buffer (20 mM HEPES in HBSS, containing 0.1% BSA) containing the test compounds at the appropriate concentrations. Plates were then centrifuged at 300 rpm for 15 s and then incubated at 37° C. for 30 minutes. At this time, 25 μL of the proprietary fluorescent dye solution was added, the plates were incubated at 37° C. for 60 minutes, and then fluorescence was quantified on a plate reader (excitation wavelength=440 nm, emission wavelength=520 nm). The proprietary dye solution contains a mixture of 1) a fluorescent dye that mimics the endogenous substrate of SERT and is thereby actively transported to the intracellular compartment in the absence of an inhibitor and 2) a masking dye that inhibits the fluorescence of dye 1 in the extracellular compartment. Therefore, the overall fluorescence of the system increases as the fluorescent dye is transported into the cells.

[4] = Metabolic stability in cynomolgus monkey liver microsomes (CLM); type: in vitro ADME, cynomolgus monkeys; details: male, cynomolgus monkey, pooled cynomolgus monkey liver microsomes, pH 7.4, 1 μM compound, 0.50 mg protein/mL, NADPH
Method: as §1, with “CLM” for “RLM”, “cynomolgus monkeys (Corning 452413)” for “Sprague Dawley rats (XenoTech R1000)”
as §2

[5] = Metabolic stability in dog liver microsomes (DLM); type: in vitro ADME, beagle dogs; details: male, beagle, dog, pooled dog liver microsomes, pH 7.4, 1 μM compound, 0.50 mg protein/mL, NADPH
Method: as §1, with “DLM” for “RLM”, “beagle dogs” for “Sprague Dawley rats”, “D1000)” for “R1000)”, “([…]),” for “(IS),”
as §2

[6] = Metabolic stability in mouse liver microsomes (MLM); type: in vitro ADME, CD-1 mice; details: male, CD-1, mouse, pooled mouse liver microsomes, pH 7.4, 1 μM compound, 0.50 mg protein/mL, NADPH
Method: as §1, with “MLM” for “RLM”, “CD-1 mice” for “Sprague Dawley rats”, “M1000)” for “R1000)”
Data Analysis. The elimination constant (kel), half-life (t1/2) and intrinsic clearance (Clint) were determined in a plot of ln(AUC) versus […], using linear regression analysis.

[7] = Metabolic stability in human liver microsomes (HLM); type: in vitro ADME; details: 0.50 mg protein/mL, NADPH
Method: HLM Stability. Pooled HLM from adult male and female donors (Corning 452117) were used. Microsomal incubations were carried out in multi-well plates. Liver microsomal incubation medium consisted of PBS (100 mM, pH 7.4), MgCl2 (1 mM), and NADPH ([…]), with 0.50 mg of liver microsomal protein per mL. Control incubations were performed by replacing the NADPH-cofactor system with PBS. Test compounds (1 μM, final solvent concentration 1.0%) were incubated with microsomes at 37° C. with constant shaking, Six time points over 60 minutes were analyzed, with 60 μL aliquots of the reaction mixture being drawn at each time point. The reaction aliquots were stopped by adding 180 μL of cold (4° C.) acetonitrile containing 200 ng/mL tolbutamide and 200 ng/mL labetalol as internal standards (IS), followed by shaking for 10 minutes, and then protein sedimentation by centrifugation at 4,000 rpm for 20 minutes at 4° C. Supernatant samples (80 μL) were diluted with water (240 μL) and analyzed for parent compound remaining using a fit-for-purpose liquid chromatography-tandem mass spectrometry (LC-MS/MS) method.
as §2

CN[C@@]1(c2ccccc2Cl)CCCCC1=O [(R)-ketamine, reference compound]
Ki [1]: 2.2 µM

CN[C@]1(c2ccccc2Cl)CCCCC1=O [(S)-ketamine, reference compound]
Ki [1]: 0.7 µM

N[C@@]1(c2cccc(F)c2)CCCCC1=O [Compound 3R, (R)-2-amino-2-(3-fluorophenyl)cyclohexan-1-one]
half-life at 1 μM [2]: > 2.42 h
microsomal CLint at 1 μM [2]: < 9.6 µL/min/mg
inhibition at 10 µM [3]: 1.75%
half-life at 1 μM [4]: 1.85 h
microsomal CLint at 1 μM [4]: 12.5 µL/min/mg
half-life at 1 μM [5]: 0.667 h
microsomal CLint at 1 μM [5]: 34.6 µL/min/mg
half-life at 1 μM [6]: 2 h
microsomal CLint at 1 μM [6]: 11.6 µL/min/mg
Clint ([7]; 1 μM compound): <9.6 μL/min/m
half-life at 1 μM ([7]; both sexes, human, pooled human liver microsomes, pH 7.4, 1 μM compound): > 2.42 h
